From patent US12640239B2, “Functional biomarkers for statin therapy in age-related macular degeneration (AMD)” (APELIOTUS TECHNOLOGIES, INC., priority 2017, dated 2026)

System: AMD patients
Test: Clinical assessment of AMD diagnosis and response to statin therapy
Type: in vivo, human
From the text: AMD status has been determined in the art using a number of recognized grading systems, such as the Beckman AMD Classification System, the Age-Related Eye Disease Study (AREDS) Severity Scale, the AREDS Simplified Severity Scale, the International Classification and Grading System for AMD, and the Wisconsin Age-Related Maculopathy Grading System. When a determination of AMD status is required for a subject, the determination of AMD status is made using the Beckman AMD Classification System (Ferris et al. Ophthalmology 2013; 120:844-851).
Table 2 provides detailed information regarding patients 1 to 7, including the baseline diagnosis (diagnosis made when starting statin therapy), ending diagnosis (the diagnosis made on the date of the last referenced evaluation), the results of evaluations performed on each patient, and whether the patient responded to statin therapy. The dark adaptation data in this Example is the rod intercept time (or RI time) reported in minutes. In this Example, the dark adaptation data was collected using the AdaptDx® Dark Adaptometer (MacuLogix, Middletown, PA) running its standard Extended Test protocol. […] Data is automatically analyzed by the AdaptDx Dark Adaptometer to provide an RI time based on recovery to a criterion sensitivity level of 5×10^−3 scotopic cd/m^2. […] The visual acuity data was collected using a standard Snellen or ETDRS eye chart with the results presented using the standard 20/20 vision scale. Drusen resolution was determined by evaluation of fundus and OCT imaging by qualified clinicians experienced in AMD evaluation. Fundus and OCT imaging data was collected using the Heidelberg Engineering Spectralis® SD-OCT (Heidelberg, Germany) or the Karl Zeiss Meditec Cirrus® HD-OCT (Jena, Germany), in both cases running standard protocols with automated data analysis performed by the instruments.
The baseline diagnosis and ending diagnosis are the result of clinical assessment by qualified clinicians experienced in evaluation of AMD patients. The clinical assessment was carried out utilizing standard ophthalmic testing, such as, but not limited to, slit-lamp biomicroscopy (including looking for evidence of drusen and pigmentary changes), fundus and OCT imaging (including looking for evidence of drusen and pigmentary changes and calculation of retinal volume and retinal thickness), and testing with a Snellen or ETDRS eye chart (including looking for visual acuity changes that might indicate a change in disease status). Dark adaptation results were not used in the clinical assessment of the baseline or ending diagnosis.
Patients 1, 3-5 and 7 were determined to be non-responders to statin treatment as the initial diagnosis was unchanged after treatment and clinical evaluation. […] For patient 2, RI time improved by 1.67 minutes OD and 2.60 minutes OS agreeing with the clinical assessment of a response to statin therapy (i.e., improving clinically). Patient 6 could not be clearly classified as a responder or non-responder to statin treatment. […] For patient 6, RI time decreased by 2.2 minutes OD, agreeing with the initial clinical signs of a response to statin therapy.

CC(C)c1c(C(=O)Nc2ccccc2)c(-c2ccccc2)c(-c2ccc(F)cc2)n1CC[C@@H](O)C[C@@H](O)CC(=O)O [atorvastatin]
Diagnosis (Patient #1, atorvastatin 20 to 80 mg/day from July 2013, OD, month 0 (July 2013), baseline): Intermediate AMD | Diagnosis (Patient #1, atorvastatin 20 to 80 mg/day from July 2013, OS, month 0 (July 2013), baseline): Intermediate AMD | Diagnosis (Patient #1, atorvastatin 20 to 80 mg/day, OD, month 60 (July 2018), ending diagnosis): Intermediate AMD | Diagnosis (Patient #1, atorvastatin 20 to 80 mg/day, OS, month 60 (July 2018), ending diagnosis): Intermediate AMD | Responder (Patient #1, atorvastatin 20 to 80 mg/day, month 60 (July 2018)): No | Diagnosis (Patient #2, atorvastatin 80 mg/day from January 2013, OD, month 0 (January 2013), baseline): Intermediate AMD | Diagnosis (Patient #2, atorvastatin 80 mg/day from January 2013, OS, month 0 (January 2013), baseline): Intermediate AMD | Diagnosis (Patient #2, atorvastatin 80 mg/day, OD, month 66 (July 2018), ending diagnosis): Early AMD | Diagnosis (Patient #2, atorvastatin 80 mg/day, OS, month 66 (July 2018), ending diagnosis): Early AMD | Responder (Patient #2, atorvastatin 80 mg/day, month 66 (July 2018)): Yes | Diagnosis (Patient #3, atorvastatin 80 mg/day from October 2016, OD, month 0 (October 2016), baseline): Late AMD (CNV) | Diagnosis (Patient #3, atorvastatin 80 mg/day, OD, month 20 (June 2018), ending diagnosis): Late AMD (CNV) | Responder (Patient #3, atorvastatin 80 mg/day, month 20 (June 2018)): No | Diagnosis (Patient #4, atorvastatin 80 mg/day from May 2018, OD, month 0 (May 2018), baseline): Late AMD (GA) | Diagnosis (Patient #4, atorvastatin 80 mg/day from May 2018, OS, month 0 (May 2018), baseline): Intermediate AMD | Diagnosis (Patient #4, atorvastatin 80 mg/day, OD, month 4 (September 2018), ending diagnosis): Late AMD (GA) | Diagnosis (Patient #4, atorvastatin 80 mg/day, OS, month 4 (September 2018), ending diagnosis): Intermediate AMD | Responder (Patient #4, atorvastatin 80 mg/day, month 4 (September 2018)): No | Diagnosis (Patient #5, atorvastatin 80 mg/day (suspended January 2015-February 2016), then 20 mg/day, pravastatin 20 mg/day from April 2018, OD, month 52 (June 2018), ending diagnosis): Intermediate AMD | Diagnosis (Patient #5, atorvastatin 80 mg/day (suspended January 2015-February 2016), then 20 mg/day, pravastatin 20 mg/day from April 2018, OS, month 52 (June 2018), ending diagnosis): Intermediate AMD | Responder (Patient #5, atorvastatin 80 mg/day (suspended January 2015-February 2016), then 20 mg/day, pravastatin 20 mg/day from April 2018, month 52 (June 2018)): No | Diagnosis (Patient #5, atorvastatin 80 mg/day from January 2014, OD, month 0 (January 2014), baseline): Intermediate AMD | Diagnosis (Patient #5, atorvastatin 80 mg/day from January 2014, OS, month 0 (January 2014), baseline): Intermediate AMD | Diagnosis (Patient #6, atorvastatin 80 mg/day from November 2017, OD, month 0 (November 2017), baseline): Intermediate AMD | Diagnosis (Patient #6, atorvastatin 80 mg/day from November 2017, OS, month 0 (November 2017), baseline): Intermediate AMD | Diagnosis (Patient #6, atorvastatin 80 mg/day, OD, month 9 (August 2018), ending diagnosis): Intermediate AMD | Diagnosis (Patient #6, atorvastatin 80 mg/day, OS, month 9 (August 2018), ending diagnosis): Intermediate AMD | Responder (Patient #6, atorvastatin 80 mg/day, month 9 (August 2018)): Maybe | Diagnosis (Patient #7, atorvastatin 10 to 20 mg/day from April 2016, OD, month 0 (April 2016), baseline): Intermediate AMD | Diagnosis (Patient #7, atorvastatin 10 to 20 mg/day from April 2016, OS, month 0 (April 2016), baseline): Intermediate AMD | Diagnosis (Patient #7, atorvastatin 10 to 20 mg/day, OD, month 27 (July 2018), ending diagnosis): Intermediate AMD | Diagnosis (Patient #7, atorvastatin 10 to 20 mg/day, OS, month 27 (July 2018), ending diagnosis): Intermediate AMD | Responder (Patient #7, atorvastatin 10 to 20 mg/day, month 27 (July 2018)): No
